Converted amounts (≈) assume the structure as drawn. A value given as a limit tells only on which side of the number the result lay.

Test [1] deals with Proteus vulgaris. As to the kind of experiment: Bacteriostatic activity against Proteus vulgaris ATCC 6380 after 24 hrs by serial dilution microtiter plate method. The class given is functional, organism-based. The note with it: ATCC 6380, 24 h.
The subject of test [2] is HeLa. Nature of the test: Cytotoxicity against human HeLa S3 cells after 120 hrs by MTT assay. The class given is functional, cell-based. (In general: Tetrazolium dyes change colour on reduction, which living cells bring about.)
In test [3] the test system is Staphylococcus aureus. Nature of the test: Bacteriostatic activity against Staphylococcus aureus ATCC 9144 after 24 hrs by serial dilution microtiter plate method. The class given is functional, organism-based. The note with it: ATCC 9144, 24 h.
Test [4] has as its system Salmonella typhimurium. As to the kind of experiment: Bacteriostatic activity against Salmonella Typhimurium PCM 2180 after 24 hrs by serial dilution microtiter plate method. The class given is functional, organism-based, Salmonella enterica subsp. enterica serovar Typhimurium. The conditions noted are these: Salmonella enterica.
Test [5] has as its system Mycobacterium tuberculosis. Nature of the test: Tuberculostatic activity against Mycobacterium tuberculosis H37Rv. It counts as functional.
For test [6], the system named is Mycobacterium kansasii. As to the kind of experiment: Tuberculostatic activity against Mycobacterium kansasii. It counts as functional.
The subject of test [7] is Micrococcus luteus. As to the kind of experiment: Bacteriostatic activity against Micrococcus luteus after 24 hrs by serial dilution microtiter plate method. It counts as functional, organism-based.
The subject of test [8] is Candida albicans. Nature of the test: Antifungal activity against Candida albicans ATCC 10261 after 48 hrs by serial dilution microtiter plate method. It counts as functional, organism-based. The note with it: ATCC 10261, 48 h.
Test [9] deals with Escherichia coli. As to the kind of experiment: Bacteriostatic activity against Escherichia coli ATCC 11775 after 24 hrs by serial dilution microtiter plate method. The conditions noted are these: ATCC 11775, 24 h. The class given is functional, organism-based.

In the case of `COc1ccc2oc(=O)sc2c1C(=O)/C=C/c1ccc(N(C)C)cc1`, the IC50 (in general, the concentration at which inhibition is half-maximal) in test [1] is greater than 1000 mg/L; in test [2] it was greater than 100 µM; in test [3] it was greater than 1000 mg/L; in [4] it was greater than 1000 mg/L; in [7], greater than 1000 mg/L; in test [8], greater than 1000 mg/L. Besides, the IC50 in [9] is greater than 1000 mg/L. For the same molecule, the MIC in test [5] and in test [6] was greater than 100 mg/L throughout.
For `COc1ccc2oc(=O)sc2c1C(=O)/C=C/c1cccc(Cl)c1`, the IC50 in test [1], in test [3], in [4], in test [7], in test [8] and in test [9] was greater than 1000 mg/L in each case. Also, the MIC (in general, the smallest concentration in the dilution series that meets the test's criterion for growth inhibition) in [5] was determined as 25 mg/L (≈ 72.1 µM); in test [6], 100 mg/L (≈ 288 µM).
In the case of `COc1ccc2oc(=O)sc2c1C(=O)/C=C/c1ccccc1Cl`, the IC50 in test [1], in test [3], in test [4], in test [7], in test [8] and in test [9] was greater than 1000 mg/L in each case. In addition, the MIC in test [5] is 50 mg/L (≈ 144 µM); in [6] it was greater than 100 mg/L.
Turning to `COc1ccc2oc(=O)sc2c1C(=O)/C=C/c1ccccc1`, the IC50 was greater than 1000 mg/L in test [1]; 8.4 µM in test [2]; greater than 1000 mg/L in test [3]; greater than 1000 mg/L in test [4]; greater than 1000 mg/L in test [7]; greater than 1000 mg/L in [8]. In addition, the IC50 in test [9] is greater than 1000 mg/L. For the same molecule, the minimal inhibitory concentration (MIC) in test [5] and in test [6] was greater than 100 mg/L each time.
In the case of `COc1ccc(/C=C/C(=O)c2c(OC)ccc3oc(=O)sc23)cc1`, the IC50 in test [1], in test [3], in test [4], in test [7], in [8] and in [9] was greater than 1000 mg/L each time. In addition, the minimal inhibitory concentration (MIC) in [5] and in test [6] was greater than 100 mg/L in each case.
For `COc1ccc2oc(=O)sc2c1C(=O)/C=C/c1ccc(OCCN(C)C)cc1`, the IC50 was 125 mg/L (≈ 313 µM) in [1]; 8.3 µM in [2]; 15.6 mg/L (≈ 39.1 µM) in test [3]; 250 mg/L (≈ 626 µM) in test [4]; 15.6 mg/L (≈ 39.1 µM) in [7]; 125 mg/L (≈ 313 µM) in test [8]. The IC50 in test [9] was determined as 125 mg/L (≈ 313 µM). Moreover, the MIC in [5] and in test [6] was 100 mg/L (≈ 250 µM) in each case.
As to `COc1ccc2oc(=O)sc2c1C(=O)/C=C/c1ccc(Br)cc1`, the 50% inhibitory concentration (IC50) in test [1], in test [3], in test [4], in test [7], in test [8] and in test [9] was greater than 1000 mg/L in each case. Besides, the MIC in test [5] and in [6] was greater than 100 mg/L throughout.
Consider `COc1ccc2oc(=O)sc2c1C(=O)/C=C/c1ccc(OCCN2CCOCC2)cc1`, for which the IC50 worked out at 125 mg/L (≈ 283 µM) in [1]; 31.2 mg/L (≈ 70.7 µM) in [3]; 250 mg/L (≈ 566 µM) in test [4]; 31.2 mg/L (≈ 70.7 µM) in test [7]; 250 mg/L (≈ 566 µM) in [8]; 125 mg/L (≈ 283 µM) in test [9]. Moreover, the MIC in [5] was 50 mg/L (≈ 113 µM); in test [6] it was greater than 100 mg/L.
Consider `COc1ccc(/C=C/C(=O)c2c(OC)ccc3oc(=O)sc23)cc1OC`, for which the IC50 was greater than 1000 mg/L in test [1]; 14.1 µM in test [2]; greater than 1000 mg/L in [3]; greater than 1000 mg/L in test [4]; greater than 1000 mg/L in test [7]; greater than 1000 mg/L in test [8]. Besides, the IC50 in test [9] was greater than 1000 mg/L. Besides, the MIC in test [5] and in [6] was greater than 100 mg/L each time.
On to `COc1ccc2oc(=O)sc2c1C(=O)/C=C/c1ccc(Cl)cc1`, for which the IC50 was greater than 1000 mg/L in test [1]; 5.2 µM in [2]; 7.8 mg/L (≈ 22.5 µM) in [3]; greater than 1000 mg/L in test [4]; 15.6 mg/L (≈ 45 µM) in test [7]; 62.5 mg/L (≈ 180 µM) in [8]. In [9], this molecule yielded an IC50 greater than 1000 mg/L. For the same molecule, the results for the MIC in [5] and in [6] were 100 mg/L (≈ 288 µM) and greater than 100 mg/L, respectively.
As for `COc1ccc2oc(=O)sc2c1C(=O)/C=C/c1ccc([N+](=O)[O-])cc1`, the IC50 in test [1], in test [3], in [4], in [7], in [8] and in test [9] was greater than 1000 mg/L throughout. Besides, the MIC in [5] and in test [6] was greater than 100 mg/L in each case.

These data come from ChEMBL document CHEMBL1147190, “Acid-catalyzed synthesis of oxathiolone fused chalcones. Comparison of their activity toward various microorganisms and human cancer cells line” (Eur J Med Chem, 2007).
